# Patent US5565469A, “Benzimidazoles and pharmaceutical compositions containing them” (Dr. Karl Thomae GmbH, priority 1994, dated 1996)
# Molecular target: T1, Angiotensin-II-receptor (Rattus norvegicus, UniProt P25095)
# T1 construct: The tissue (rat's lung) is homogenised in tris buffer; from tissue; host or cells: rat lung homogenate
# T1 sequence (P25095 1-359): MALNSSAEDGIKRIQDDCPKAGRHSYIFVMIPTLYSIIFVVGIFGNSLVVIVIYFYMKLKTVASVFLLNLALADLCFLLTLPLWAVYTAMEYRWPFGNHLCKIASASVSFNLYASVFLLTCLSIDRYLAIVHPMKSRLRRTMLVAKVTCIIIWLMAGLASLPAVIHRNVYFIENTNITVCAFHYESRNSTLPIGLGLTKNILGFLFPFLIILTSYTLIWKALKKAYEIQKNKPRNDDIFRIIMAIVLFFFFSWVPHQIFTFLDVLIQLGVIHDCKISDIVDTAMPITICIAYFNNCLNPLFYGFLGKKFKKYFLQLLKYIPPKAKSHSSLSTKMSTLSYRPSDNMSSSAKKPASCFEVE
# Experiment: Angiotensin-II-receptor binding (rat lung homogenate, [^125 I]-angiotensin-II displacement)
# Conditions: rat's lung homogenate; 50 pM [^125 I]-angiotensin-II; 60 minutes at 37° C.; pH 7.40
# Protocol: The tissue (rat's lung) is homogenised in tris buffer (50 mMol Tris, 150 mMol NaCl, 5 mMol EDTA, pH 7.40) and centrifuged twice for 20 minutes each time at 20,000×g. The resulting pellet is resuspended in incubation buffer (50 mMol Tris, 5 mMol MgCl2, 0.2% BSA, pH 7.40) 1:75, based on the moist weight of the tissue. Each 0.1 ml of homogenate is incubated for 60 minutes at 37° C. with 50 pM [^125 I]-angiotensin-II (NEN, Dreieich, FRG) and increasing concentrations of the test substance in a total volume of 0.25 ml. The incubation is terminated by rapid filtration through glass fibre filter mats. The filters are each washed with 4 ml of ice cold buffer (25 mMol Tris, 2.5 mMol MgCl2, 0.1% BSA, pH 7.40). The bound radioactivity is measured in a gamma-counter. The corresponding IC50 value is determined from the dosage-activity curve.
row,SMILES,IC50 [nM]
1,CCCc1nc2c(C)cc(-c3nc4ccccc4n3C)cc2n1Cc1ccc(-c2ccccc2S(=O)(=O)O)cc1 [B],8
2,CCCc1nc2c(C)cc(-c3nc4ccccc4n3C)cc2n1Cc1ccc(-c2ccccc2S(=O)(=O)NC(=O)NCc2ccc(OC)cc2)cc1 [F],110
3,CCc1nc2c(C)cc(-c3cn4c(n3)CCCC4)cc2n1Cc1ccc(-c2ccccc2S(=O)(=O)NC(=O)c2ccccc2)cc1 [I],36
4,CCCc1nc2c(C)cc(-c3nc4ccccc4n3C)cc2n1Cc1ccc(-c2ccccc2S(=O)(=O)NC(=O)c2ccccc2)cc1 [H],78
5,CCc1nc2c(C)cc(-c3cn4c(n3)CCCC4)cc2n1Cc1ccc(-c2ccccc2S(=O)(=O)NC(=O)NC2CCCCC2)cc1 [K],73
6,CCc1nc2c(C)cc(-c3cn4c(n3)CCCC4)cc2n1Cc1ccc(-c2ccccc2NC(=O)C(F)(F)F)cc1 [E],28
7,CCCc1nc2c(C)cc(-c3nc4ccccc4n3C)cc2n1Cc1ccc(-c2ccccc2NC(=O)C(F)(F)F)cc1 [D],40
8,CCCc1nc2c(C)cc(-c3nc4ccccc4n3C)cc2n1Cc1ccc(-c2ccccc2S(=O)(=O)NC(=O)NC2CCCCC2)cc1 [G],310
9,CCCCc1nc2c(C)cc(N3CCCS3(=O)=O)cc2n1Cc1ccc(-c2ccccc2S(=O)(=O)NC(=O)c2ccccc2)cc1 [J],13.9
10,CCc1nc2c(C)cc(-c3cn4c(n3)CCCC4)cc2n1Cc1ccc(-c2ccccc2S(=O)(=O)O)cc1 [C],3.4
11,CCCc1nc2c(C)cc(-c3nc4ccccc4n3C)cc2n1Cc1ccc(-c2ccccc2C=C2SC(=O)NC2=O)cc1 [A],94
